Reference: ChEMBL document CHEMBL3507680, “University of Dundee, Gates Library screen for HepG2 cell viability”

Experiment: Human HepG2 cell viability assay in 384 well format
Format: toxicity, cell-based
Design: dose 125 nL, time 70.5 hour; concentration not given beside the values
Conditions: HepG2 cells, read-out: Inhibition

Going from `CCOCC1CN(C(=O)C2=CCCC2)Cc2cnn(C)c21` (stereo not drawn) to `CCNc1cc2c(nn1)CCN(C(=O)c1cc3c(s1)CCOC3)C2`, the cytotoxicity at 70.5 h rises from -14.7% to -9.07%.

First: CN(C)Cc1cn(CC2CCCN(c3nccc4occc34)C2)nn1 (stereo not drawn)
Second: COc1cccc(CN(C)C(=O)CN2CCN(c3nccn3C)CC2)c1
The cytotoxicity at 70.5 h of the first is lower: -14.2% for the first, -6.12% for the second.

Compared with `Cc1nc(CNC(=O)CC2C(=O)NCCN2CCC(C)C)n[nH]1` (stereo not drawn), `Cc1cc(CN2CCN(C(C)C)C(CCO)C2)[nH]n1` (stereo not drawn) is higher in cytotoxicity at 70.5 h: -8.3% for the first, 9.92% for the second.

First: COCCCNc1cc(C(=O)N2CCOCC2)ccc1C
Second: Cc1n[nH]c(C)c1Sc1ccccc1NC(=O)N1CCOCC1
The cytotoxicity at 70.5 h of the first is lower: -17.5% for the first, -2.37% for the second.

Compared with `CCCC(=O)N1CCCN(C(=O)c2oc(C)nc2C)CC1`, `CCn1c(C(=O)N2CCN(C(=O)NC(C)C)CC2)cc2ccccc21` is lower in cytotoxicity at 70.5 h: -4.74% for the first, -9.47% for the second.

Going from `CC(C)NC(=O)CN(C)C(=O)c1csc(Cc2ccccc2F)n1` to `CN(Cc1ccc(Cl)s1)C(=O)c1ccccc1OCC(N)=O`, the cytotoxicity at 70.5 h falls from -6.85% to -14.1%.

Going from `C=Cc1cccc(CN2CCCn3nc(CNS(C)(=O)=O)cc3C2)c1` to `Cc1cc(=O)c(C(=O)Nc2cccc(CCN3CCCC3)c2)c[nH]1`, the cytotoxicity at 70.5 h rises from -3.84% to -2.1%.

First: COc1ccc2nnc(CCCC(=O)NCc3ccccc3)n2n1
Second: Cc1nnc([C@H]2CCN(CCCc3ccccc3)C2)o1
The cytotoxicity at 70.5 h of the first is lower: -13.2% for the first, 8.95% for the second.

Compared with `O=c1c2ccc(C(F)(F)F)cc2ncn1CCCN1CCCCC1CO` (stereo not drawn), `CCC1CN(CC(=O)NCCN2CCCC2)c2ccccc2S1` (stereo not drawn) is lower in cytotoxicity at 70.5 h: 14.6% for the first, -2.98% for the second.

Compared with `COc1cc2c(cc1CN1CCCCC1CN1CCOCC1)CCC2` (stereo not drawn), `CN1CCCC(Cc2cncc(C(=O)N3CCOCC3)c2)C1` (stereo not drawn) is higher in cytotoxicity at 70.5 h: 1.06% for the first, 12.9% for the second.

First: CCS(=O)(=O)N1CCC2(CCN(Cc3ccc(C)o3)C2)C1 (stereo not drawn)
Second: Cc1ccc(CN2CCC3(C2)C(=O)N(CC2CC2)c2ccccc23)s1 (stereo not drawn)
The cytotoxicity at 70.5 h of the first is higher: 13% for the first, -8.57% for the second.

First: Fc1ccc(CN2C[C@@H]3OCCN(CCN4CCCC4)[C@@H]3C2)cc1
Second: Fc1ccc(CN2CCOC[C@H](Oc3cccnc3)C2)cc1
The cytotoxicity at 70.5 h of the first is lower: -6.53% for the first, 10.5% for the second.

Compared with `O=C(CNC1CCc2ncnn2C1)NCCc1cccs1` (stereo not drawn), `O=C(CC1COCCN1)NCCc1noc(-c2ccccc2)n1` (stereo not drawn) is lower in cytotoxicity at 70.5 h: 2.68% for the first, -2.33% for the second.

First: CCc1ccc(C(=O)N2CCCn3nnc(Cn4cccn4)c3C2)cc1
Second: Cc1cnn(CC(=O)N2CCC(c3ccn4nccc4n3)CC2)c1
The cytotoxicity at 70.5 h of the first is lower: -5.86% for the first, -2.27% for the second.

Compared with `CN(C)c1cc(C2CCCN(C(=O)c3noc4c3CCCC4)C2)ccn1` (stereo not drawn), `CSc1[nH]c(=O)c(C(=O)N2CCCC2C2CCCC2)cc1C#N` (stereo not drawn) is lower in cytotoxicity at 70.5 h: -1.31% for the first, -5.31% for the second.

Going from `COc1cccc(S(=O)(=O)N2C[C@H](OC)[C@]3(CCCO3)C2)c1` to `CN1CC2(CCCN(CCOCc3ccccc3)C2)OC1=O` (stereo not drawn), the cytotoxicity at 70.5 h rises from -4.33% to -3.02%.

First: Cc1cc(C)n(CC(C)CNC(=O)N(C)Cc2cc(C)on2)n1 (stereo not drawn)
Second: CCOc1ccc(NC(=O)N(C)Cc2cnn(C)c2)c(C)c1
The cytotoxicity at 70.5 h of the first is lower: -8.81% for the first, -5.21% for the second.

Compared with `CCc1noc(C(C)N(C)CC(=O)Nc2ccc(C)cc2)n1` (stereo not drawn), `Cc1noc(C(C)N2CCN(CCc3ccncc3)CC2)n1` (stereo not drawn) is higher in cytotoxicity at 70.5 h: -4.51% for the first, -4.19% for the second.

Compared with `Cc1cc2[nH]c(=O)oc2cc1S(=O)(=O)N1C[C@@H](N(C)C)[C@H](C(C)C)C1`, `CNS(=O)(=O)c1cccc(C(C)NCc2nccn2C(C)C)c1` (stereo not drawn) is higher in cytotoxicity at 70.5 h: -10.7% for the first, 10.8% for the second.

First: CC(O)CN1CCN(C(=O)c2cc3ccccc3n2C)CC1 (stereo not drawn)
Second: CC(O)CN1CCC(CNCc2ccc(C(N)=O)cc2)CC1 (stereo not drawn)
The cytotoxicity at 70.5 h of the first is higher: 14.8% for the first, -0.474% for the second.

Compared with `CC(CCNC(=O)N1CCC1)N(C)C(=O)OC(C)(C)C` (stereo not drawn), `CC(C)CC(C#N)NC(=O)CCNC(=O)C(C)(C)C` (stereo not drawn) is higher in cytotoxicity at 70.5 h: -0.749% for the first, 2.87% for the second.

Going from `O=C(NCCc1cccc(F)c1)NCC(O)c1cccc(F)c1` (stereo not drawn) to `CN1CCC(CNC(=O)c2ccc3cccc(Cl)c3n2)C1` (stereo not drawn), the cytotoxicity at 70.5 h falls from -5.32% to -6.3%.

Compared with `CCc1cnc(N)nc1N1CCN(C(C)=O)CC1`, `Cc1noc(C(C)N2CCN(c3ccc(C#N)cn3)CC2)n1` (stereo not drawn) is higher in cytotoxicity at 70.5 h: -15.8% for the first, -10.1% for the second.

First: CN1CCC2(CC1)CN(CC1CC1)CC21CCNC1=O (stereo not drawn)
Second: CC(C)(C)C(O)CN1CCN(CC(=O)NC(C2CC2)C2CC2)CC1 (stereo not drawn)
The cytotoxicity at 70.5 h of the first is lower: -6.91% for the first, 2.37% for the second.

Compared with `Cc1nnc(NC(=O)NCCCN2CCC(C(N)=O)CC2)s1`, `CN(Cc1csc(-c2cnn(C)c2)n1)CC1CCN(CCO)CC1` is higher in cytotoxicity at 70.5 h: -8.8% for the first, 18.5% for the second.

Compared with `COCCN1CC(=O)c2sc(NCc3ccccc3)nc2C1`, `COC(=O)[C@@H]1CCCN1C(=O)c1cn(C/C=C/c2ccccc2)nn1` is higher in cytotoxicity at 70.5 h: 0.849% for the first, 24.7% for the second.

Compared with `CN(C)c1ncc2c(n1)C1(CCN(Cc3ccccc3F)C1)COC2` (stereo not drawn), `Cc1nc(CN2CCCC(N(C)Cc3nc(CC(C)C)no3)C2)no1` (stereo not drawn) is lower in cytotoxicity at 70.5 h: -7.03% for the first, -9.14% for the second.

Going from `CS(=O)(=O)N1CCN(c2ccc3ccc(C(=O)NC4CC4)cn23)CC1` to `CN(CCO)Cc1cc(=O)n2cc(Br)ccc2n1`, the cytotoxicity at 70.5 h falls from 0.444% to -1.02%.

First: Cc1noc(C)c1CN(C)CC1CC(C2CCCCC2)=NO1 (stereo not drawn)
Second: CCc1[nH]c2c(CNc3cnccn3)cc(F)cc2c1C
The cytotoxicity at 70.5 h of the first is higher: -2.46% for the first, -2.66% for the second.
